Ki data for 2 molecules are collected here from ChEMBL document CHEMBL3638975, “Aminomethyl-4-imidazoles” (2013).

The target in this experiment is Trace amine-associated receptor 1 (Mus musculus, UniProt Q923Y8). In words: Binding Assay: Radioligand binding assay: The radioligand [3H]-rac-2-(1,2,3,4-tetrahydro-1-naphthyl)-2-imidazoline was used at a concentration equal to the calculated Kd value of 60 nM to give a total binding at around 0.1% of the total added radioligand concentration, and a specific binding which represented approximately 70-80% of the total binding.

Molecules are shown by their SMILES.

Trace amine-associated receptor 1, sequence (Q923Y8 whole entry): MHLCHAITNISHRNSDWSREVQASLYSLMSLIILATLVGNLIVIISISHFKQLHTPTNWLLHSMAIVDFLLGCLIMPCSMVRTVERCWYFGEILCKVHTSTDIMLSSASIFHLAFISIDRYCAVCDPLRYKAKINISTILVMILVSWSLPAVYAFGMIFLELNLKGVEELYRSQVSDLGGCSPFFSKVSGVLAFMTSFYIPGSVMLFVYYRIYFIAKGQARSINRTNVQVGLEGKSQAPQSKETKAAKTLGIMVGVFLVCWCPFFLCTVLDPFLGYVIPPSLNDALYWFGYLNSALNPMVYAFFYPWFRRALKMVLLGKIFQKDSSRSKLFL

In the case of `CN(Cc1cnc[nH]1)c1cccc(F)c1`, the Ki is 2.9 nM.
With `CCN(Cc1cnc[nH]1)c1ccc(CCc2ccc(Cl)cc2)cc1`, the Ki was 7.2 nM.
